Values quoted from earlier work as cited in publication PMC7518156 (PeerJ, 2020).
Where two headings read alike, the source gives them in different places.

Settings: ref Scheffler et al., 2011, cited from earlier work; for half-life (t1/2): Lu et al., 2006
[1] = oral administration, cancer patients
[2] = oral administration, healthy subjects

C#Cc1cccc(Nc2ncnc3cc(OCCOC)c(OCCOC)cc23)c1 [ERL, Erlotinib]
half-life (t1/2) (cancer patients): up to 40.9 h
half-life (t1/2) (healthy patients): about 24.4 h
F [1]: 76%
Tmax [1]: 3 h
mean bioavailability (F) [2]: 59%
time to reach maximum concentration (tmax) [2]: 1.4 h

COc1cc2ncnc(Nc3ccc(F)c(Cl)c3)c2cc1OCCCN1CCOCC1 [GEF, Gefitinib]
half-life (t1/2) (cancer patients): ~48 h
half-life (t1/2) (healthy patients): about 41 h
Tmax [1]: about 7 h
time to reach maximum concentration (tmax) [2]: 3 h
